Measured values published in US10300051B2, “Cyclopropylamines as LSD1 inhibitors” (priority 2014, dated 2019).

Molecular target: LSD-1 enzyme (Homo sapiens (Human), UniProt O60341)
Format: biochemical
Details: 1 nM LSD-1 enzyme, 1 hour preincubation at 25° C., Biotin-labeled Histone H3 peptide substrate
Description: Example A: LSD1 Histone Demethylase Biochemical Assay
LANCE LSD1/KDM1A demethylase assay—10 μL of 1 nM LSD-1 enzyme (ENZO BML-SE544-0050) in the assay buffer (50 mM Tris, pH 7.5, 0.01% Tween-20, 25 mM NaCl, 5 mM DTT) were preincubated for 1 hour at 25° C. with 0.8 μL compound/DMSO dotted in black 384 well polystyrene plates. […] Reactions were stopped by addition of 10 μL 1× LANCE Detection Buffer (PerkinElmer CR97-100) supplemented with 1.5 nM Eu-anti-unmodified H3K4 Antibody (PerkinElmer TRF0404), and 225 nM LANCE Ultra Streptavidin (PerkinElmer TRF102) along with 0.9 mM Tranylcypromine-HCl (Millipore 616431). After stopping the reactions plates were incubated for 30 minutes and read on a PHERAstar FS plate reader (BMG Labtech).

O=C(O)CCN1CCC(CN[C@@H]2C[C@H]2c2ccccc2)(Cc2ccc(F)c(F)c2)CC1 [Example 20, 3-[4-(3,4-difluorobenzyl)-4-({[(1R,2S)-2-phenylcyclopropyl]amino}methyl)piperidin-1-yl]propanoic Acid]
IC50: < 0.1 µM

COCC1(CN[C@@H]2C[C@H]2c2ccccc2)CCN(CC(C)(C)C(=O)O)CC1 [Example 48, 3-[4-(methoxymethyl)-4-({[(1R,2S)-2-phenylcyclopropyl]amino}methyl)piperidin-1-yl]-2,2-dimethylpropanoic Acid]
IC50: < 0.1 µM

O=C(O)c1cccc(CC2(CN[C@@H]3C[C@H]3c3ccccc3)CCN(C3CCOCC3)CC2)c1 [Example 31, 3-{[4-({[(1R,2S)-2-phenylcyclopropyl]amino}methyl)-1-(tetrahydro-2H-pyran-4-yl)piperidin-4-yl]methyl}benzoic Acid]
IC50: < 0.1 µM

COCC1(CN[C@@H]2C[C@H]2c2ccccc2)CCN(C(=O)N2CCOCC2)CC1 [Example 49, (1R,2S)—N-{[4-(methoxymethyl)-1-(morpholin-4-ylcarbonyl)piperidin-4-yl]methyl}-2-phenylcyclopropanamine]
IC50: < 0.1 µM

CNC(=O)CCN1CCC(CN[C@@H]2C[C@H]2c2ccccc2)(COC)CC1 [Example 24, 3-[4-(methoxymethyl)-4-({[(1R,2S)-2-phenylcyclopropyl]amino}methyl)piperidin-1-yl]-N-methylpropanamide]
IC50: < 0.1 µM

O=C(O)c1cccc(CC2(CN[C@@H]3C[C@H]3c3ccccc3)CCN(Cc3ccccn3)CC2)c1 [Example 32, 3-{[4-({[(1R,2S)-2-phenylcyclopropyl]amino}methyl)-1-(pyridin-2-ylmethyl)piperidin-4-yl]methyl}benzoic Acid]
IC50: < 0.1 µM

N#CCC1(CN[C@@H]2C[C@H]2c2ccccc2)CCN(Cc2cccnc2)CC1 (relative stereo) [Example 7, [4-{[(trans-2-Phenylcyclopropyl)amino]methyl}-1-(pyridin-3-ylmethyl)piperidin-4-yl]acetonitrile]
IC50: < 0.1 µM

N#Cc1cccc(OCC2(CN[C@@H]3C[C@H]3c3ccccc3)CCN(CCC(=O)O)CC2)c1 [Example 47, 3-[4-[(3-cyanophenoxy)methyl]-4-({[(1R,2S)-2-phenylcyclopropyl]amino}methyl)piperidin-1-yl]propanoic Acid]
IC50: < 0.1 µM

O=C(O)CCN1CCC(CN[C@@H]2C[C@H]2c2ccccc2)(Cc2cccc(O[C@@H]3CCOC3)c2)CC1 [Example 35, 3-(4-({[(1R,2S)-2-phenylcyclopropyl]amino}methyl)-4-{3-[(3R)-tetrahydrofuran-3-yloxy]benzyl}piperidin-1-yl)propanoic Acid]
IC50: < 0.1 µM

O=C(O)CCN1CCC(CN[C@@H]2C[C@H]2c2ccccc2)(COc2ccccc2F)CC1 [Example 37, 3-[4-[(2-fluorophenoxy)methyl]-4-({[(1R,2S)-2-phenylcyclopropyl]amino}methyl)piperidin-1-yl]propanoic Acid]
IC50: < 0.1 µM

O=C(O)c1cccc(CC2(CN[C@@H]3C[C@H]3c3ccccc3)CCN(Cc3cccnc3)CC2)c1 [Example 33, 3-{[4-({[(1R,2S)-2-phenylcyclopropyl]amino}methyl)-1-(pyridin-3-ylmethyl)piperidin-4-yl]methyl}benzoic Acid]
IC50: < 0.1 µM

N#Cc1ccc(CC2(CN[C@@H]3C[C@H]3c3ccccc3)CCN(CCC(=O)O)CC2)cc1 [Example 41, 3-[4-(4-cyanobenzyl)-4-({[(1R,2S)-2-phenylcyclopropyl]amino}methyl)piperidin-1-yl]propanoic Acid]
IC50: < 0.1 µM

O=C(O)CCN1CCC(CN[C@@H]2C[C@H]2c2ccccc2)(Cc2ccc(F)cn2)CC1 [Example 54, 3-[4-[(5-fluoropyridin-2-yl)methyl]-4-({[(1R,2S)-2-phenylcyclopropyl]amino}methyl)piperidin-1-yl]propanoic Acid]
IC50: < 0.1 µM

COCC1(CN[C@@H]2C[C@H]2c2ccccc2)CCN(CCC(=O)N(C)C)CC1 [Example 23, 3-[4-(methoxymethyl)-4-({[(1R,2S)-2-phenylcyclopropyl]amino}methyl)piperidin-1-yl]-N,N-dimethylpropanamide]
IC50: < 0.1 µM
